From ChEMBL document CHEMBL4622965, “Structural Basis of Inhibition of Insulin-Regulated Aminopeptidase by a Macrocyclic Peptidic Inhibitor” (ACS Med Chem Lett, 2020)
Calls of active or inactive are those of the source. No cut-off for these calls is given here.

Tests used:
[1] = target: Endoplasmic reticulum aminopeptidase 1 (Homo sapiens, UniProt Q9NZ08); assay: Inhibition of ERAP1 (unknown origin) using Leu-AMC as substrate by fluorescence based assay
[2] = target: Endoplasmic reticulum aminopeptidase 2 (Homo sapiens, UniProt Q6P179); assay: Inhibition of ERAP2 (unknown origin) using Arg-AMC as substrate by fluorescence based assay
Sequence of Endoplasmic reticulum aminopeptidase 2 (Q6P179 whole entry): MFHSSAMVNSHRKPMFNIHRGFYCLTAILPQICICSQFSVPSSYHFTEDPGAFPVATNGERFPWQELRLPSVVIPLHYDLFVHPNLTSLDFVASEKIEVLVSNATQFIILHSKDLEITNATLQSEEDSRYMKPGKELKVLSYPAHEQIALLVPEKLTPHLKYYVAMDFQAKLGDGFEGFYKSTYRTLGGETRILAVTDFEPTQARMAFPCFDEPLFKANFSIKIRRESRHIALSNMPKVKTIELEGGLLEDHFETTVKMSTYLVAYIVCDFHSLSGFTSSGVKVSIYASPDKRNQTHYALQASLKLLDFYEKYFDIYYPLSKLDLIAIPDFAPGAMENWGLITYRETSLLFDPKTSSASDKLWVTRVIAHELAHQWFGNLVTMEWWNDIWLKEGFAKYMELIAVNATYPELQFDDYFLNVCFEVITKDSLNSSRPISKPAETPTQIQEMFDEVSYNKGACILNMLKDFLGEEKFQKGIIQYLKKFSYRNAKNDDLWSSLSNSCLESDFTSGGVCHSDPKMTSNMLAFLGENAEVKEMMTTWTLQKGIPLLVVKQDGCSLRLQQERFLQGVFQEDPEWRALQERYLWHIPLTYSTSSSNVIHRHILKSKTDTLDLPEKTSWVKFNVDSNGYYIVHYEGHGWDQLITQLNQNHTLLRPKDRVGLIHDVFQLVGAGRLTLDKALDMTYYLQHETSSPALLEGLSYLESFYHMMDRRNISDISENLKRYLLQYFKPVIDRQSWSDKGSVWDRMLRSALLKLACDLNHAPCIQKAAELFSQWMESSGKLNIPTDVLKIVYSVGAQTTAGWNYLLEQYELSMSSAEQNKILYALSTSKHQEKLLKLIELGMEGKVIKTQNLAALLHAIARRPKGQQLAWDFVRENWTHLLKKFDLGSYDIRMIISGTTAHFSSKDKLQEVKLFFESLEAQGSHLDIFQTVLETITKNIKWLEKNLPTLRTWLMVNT

Sequence of Endoplasmic reticulum aminopeptidase 1 (Q9NZ08 whole entry): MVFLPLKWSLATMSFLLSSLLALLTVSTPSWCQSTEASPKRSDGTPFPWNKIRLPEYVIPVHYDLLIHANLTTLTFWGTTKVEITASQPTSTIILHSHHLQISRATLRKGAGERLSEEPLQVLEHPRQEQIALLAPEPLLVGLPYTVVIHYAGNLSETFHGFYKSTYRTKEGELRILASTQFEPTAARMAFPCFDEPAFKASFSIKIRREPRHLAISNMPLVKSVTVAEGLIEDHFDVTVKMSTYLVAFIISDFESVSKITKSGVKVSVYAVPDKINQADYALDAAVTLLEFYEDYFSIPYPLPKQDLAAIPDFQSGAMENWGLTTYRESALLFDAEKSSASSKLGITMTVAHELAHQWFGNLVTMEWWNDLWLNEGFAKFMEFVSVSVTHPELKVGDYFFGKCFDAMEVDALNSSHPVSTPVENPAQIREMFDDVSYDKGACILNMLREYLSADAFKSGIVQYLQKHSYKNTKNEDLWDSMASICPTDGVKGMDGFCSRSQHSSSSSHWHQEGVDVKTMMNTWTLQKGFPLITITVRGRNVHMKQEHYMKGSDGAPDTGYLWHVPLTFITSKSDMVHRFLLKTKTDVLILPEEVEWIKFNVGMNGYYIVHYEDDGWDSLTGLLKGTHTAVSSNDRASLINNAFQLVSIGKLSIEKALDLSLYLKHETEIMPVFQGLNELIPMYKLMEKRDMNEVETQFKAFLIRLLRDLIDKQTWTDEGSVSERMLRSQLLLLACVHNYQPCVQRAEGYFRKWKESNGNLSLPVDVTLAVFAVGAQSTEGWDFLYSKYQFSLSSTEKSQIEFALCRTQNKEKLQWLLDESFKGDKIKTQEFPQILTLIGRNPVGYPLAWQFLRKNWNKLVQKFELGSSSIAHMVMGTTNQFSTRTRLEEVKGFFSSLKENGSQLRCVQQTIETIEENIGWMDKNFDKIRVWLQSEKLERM

For CC[C@H](C)[C@H](NC(=O)[C@H](Cc1ccc(O)cc1)NC(=O)[C@@H](N)C(C)C)C(=O)N[C@@H](Cc1cnc[nH]1)C(=O)N1CCC[C@H]1C(=O)N[C@@H](Cc1ccccc1)C(=O)O [ANGIOTENSIN IV], which IC50 [1] is on record?
Its IC50 is 79.4 µM.

And the IC50 [2]?
The IC50 was 7.94 µM.

Which results are given for N[C@H]1CCSSC[C@@H](C(=O)NCc2ccccc2CC(=O)O)NC(=O)C[C@H](Cc2ccc(O)cc2)NC1=O?
pIC50 [1]: inactive; IC50 [2]: 1.26 µM
